Key:
[1] = molecular target: Dual specificity mitogen-activated protein kinase kinase 1 (Homo sapiens) (UniProt Q02750); assay: Inhibition of MEK1 (unknown origin) assessed as remaining activity at 1 uM by Kinome scan method relative to control
[2] = molecular target: Serine/threonine-protein kinase SBK1 (Homo sapiens) (UniProt Q52WX2); assay: Inhibition of SBK1 (unknown origin) assessed as remaining activity at 1 uM by Kinome scan method relative to control
[3] = molecular target: High affinity nerve growth factor receptor (Homo sapiens) (UniProt P04629); assay: Inhibition of TRKA (unknown origin) assessed as remaining activity at 1 uM by Kinome scan method relative to control
[4] = molecular target: Calcium/calmodulin-dependent protein kinase type II subunit delta (Homo sapiens) (UniProt Q13557); assay: Inhibition of human CAMK2D assessed as residual activity at 1 uM using RBER-CHKtide as substrate in presence of 33P-ATP by ProQinase assay relative to control
[5] = molecular target: T1, Myotonin-protein kinase (Homo sapiens) (UniProt Q09013); assay: Inhibition of human DMPK assessed as residual activity at 1 uM using RBER-CHKtide as substrate in presence of 33P-ATP by ProQinase assay relative to control
T1 sequence (whole entry): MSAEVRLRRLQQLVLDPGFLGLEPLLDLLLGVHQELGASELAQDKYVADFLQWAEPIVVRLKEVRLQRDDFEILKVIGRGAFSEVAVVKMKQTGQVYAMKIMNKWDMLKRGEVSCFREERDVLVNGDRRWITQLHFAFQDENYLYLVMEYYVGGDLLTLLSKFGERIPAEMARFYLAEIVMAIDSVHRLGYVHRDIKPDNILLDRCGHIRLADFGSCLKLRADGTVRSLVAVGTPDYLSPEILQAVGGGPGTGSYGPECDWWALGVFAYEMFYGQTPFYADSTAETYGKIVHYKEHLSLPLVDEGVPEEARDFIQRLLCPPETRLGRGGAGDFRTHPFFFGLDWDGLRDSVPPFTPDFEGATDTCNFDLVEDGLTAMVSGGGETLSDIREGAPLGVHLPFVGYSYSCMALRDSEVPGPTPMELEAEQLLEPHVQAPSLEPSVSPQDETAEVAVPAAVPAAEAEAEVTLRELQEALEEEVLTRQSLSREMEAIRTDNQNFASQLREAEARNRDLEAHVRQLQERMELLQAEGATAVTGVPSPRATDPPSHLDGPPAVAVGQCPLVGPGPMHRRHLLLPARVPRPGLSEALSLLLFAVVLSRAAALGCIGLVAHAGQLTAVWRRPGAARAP

[6] = test system: Epidermal growth factor receptor (Homo sapiens), P00533 [UNDEFINED MUTATION]; assay: Inhibition of human EGFR d747-749/A750P mutant assessed as residual activity at 1 uM using PolyEY as substrate in presence of 33P-ATP by ProQinase assay relative to control
[7] = molecular target: Fibroblast growth factor receptor 3 (Homo sapiens) (UniProt P22607); assay: Inhibition of human FGFR3 assessed as residual activity at 1 uM using PolyEY as substrate in presence of 33P-ATP by ProQinase assay relative to control
[8] = molecular target: Tyrosine-protein kinase Fyn (Homo sapiens) (UniProt P06241); assay: Inhibition of human FYN assessed as residual activity at 1 uM using polyEY as substrate in presence of 33P-ATP by ProQinase assay relative to control
[9] = molecular target: G protein-coupled receptor kinase 5 (Homo sapiens) (UniProt P34947); assay: Inhibition of human GRK5 assessed as residual activity at 1 uM using casein as substrate in presence of 33P-ATP by ProQinase assay relative to control
[10] = molecular target: Mitogen-activated protein kinase 8 (Homo sapiens) (UniProt P45983); assay: Inhibition of human JNK1 assessed as residual activity at 1 uM using ATF2 as substrate in presence of 33P-ATP by ProQinase assay relative to control
[11] = molecular target: LIM domain kinase 2 (Homo sapiens) (UniProt P53671); assay: Inhibition of human LIMK2 assessed as residual activity at 1 uM using CFL1 as substrate in presence of 33P-ATP by ProQinase assay relative to control
[12] = molecular target: Maternal embryonic leucine zipper kinase (Homo sapiens) (UniProt Q14680); assay: Inhibition of human MELK assessed as residual activity at 1 uM using RBER-CHKtide as substrate in presence of 33P-ATP by ProQinase assay relative to control
[13] = molecular target: Myosin light chain kinase 2, skeletal/cardiac muscle (Homo sapiens) (UniProt Q9H1R3); assay: Inhibition of human MYLK2 assessed as residual activity at 1 uM using RB-S6P as substrate in presence of 33P-ATP by ProQinase assay relative to control
[14] = molecular target: Mitogen-activated protein kinase 14 (Homo sapiens) (UniProt Q16539); assay: Inhibition of human p38alpha assessed as residual activity at 1 uM using ATF2 as substrate in presence of 33P-ATP by ProQinase assay relative to control
[15] = molecular target: T2, Serine/threonine-protein kinase 17A (Homo sapiens) (UniProt Q9UEE5); assay: Inhibition of human STK17A assessed as residual activity at 1 uM using RB-CTF as substrate in presence of 33P-ATP by ProQinase assay relative to control
T2 sequence (whole entry): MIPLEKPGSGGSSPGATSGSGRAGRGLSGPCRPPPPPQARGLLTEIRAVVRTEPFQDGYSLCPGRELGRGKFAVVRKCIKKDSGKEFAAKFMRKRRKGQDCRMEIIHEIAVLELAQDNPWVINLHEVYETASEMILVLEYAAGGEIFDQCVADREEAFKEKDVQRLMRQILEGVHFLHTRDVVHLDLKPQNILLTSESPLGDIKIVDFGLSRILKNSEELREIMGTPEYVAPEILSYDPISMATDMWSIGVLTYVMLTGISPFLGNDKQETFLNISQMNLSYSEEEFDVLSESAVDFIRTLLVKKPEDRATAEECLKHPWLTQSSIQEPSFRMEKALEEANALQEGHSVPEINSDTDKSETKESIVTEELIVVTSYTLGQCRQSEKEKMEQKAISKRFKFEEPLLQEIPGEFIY

[16] = molecular target: Dual specificity protein kinase TTK (Homo sapiens) (UniProt P33981); assay: Inhibition of human TTK assessed as residual activity at 1 uM using RBER-CHKtide as substrate in presence of 33P-ATP by ProQinase assay relative to control
[17] = test system: Mus musculus; assay: In vivo anti-inflammatory activity in Gal/LPS induced mouse assessed as inhibition in TNF-alpha release at 3 mg/kg, po administered for 1 hrs relative to control; assay type: functional

Tyrosine-protein kinase Fyn (Homo sapiens), sequence (P06241 2-537 limits assumed): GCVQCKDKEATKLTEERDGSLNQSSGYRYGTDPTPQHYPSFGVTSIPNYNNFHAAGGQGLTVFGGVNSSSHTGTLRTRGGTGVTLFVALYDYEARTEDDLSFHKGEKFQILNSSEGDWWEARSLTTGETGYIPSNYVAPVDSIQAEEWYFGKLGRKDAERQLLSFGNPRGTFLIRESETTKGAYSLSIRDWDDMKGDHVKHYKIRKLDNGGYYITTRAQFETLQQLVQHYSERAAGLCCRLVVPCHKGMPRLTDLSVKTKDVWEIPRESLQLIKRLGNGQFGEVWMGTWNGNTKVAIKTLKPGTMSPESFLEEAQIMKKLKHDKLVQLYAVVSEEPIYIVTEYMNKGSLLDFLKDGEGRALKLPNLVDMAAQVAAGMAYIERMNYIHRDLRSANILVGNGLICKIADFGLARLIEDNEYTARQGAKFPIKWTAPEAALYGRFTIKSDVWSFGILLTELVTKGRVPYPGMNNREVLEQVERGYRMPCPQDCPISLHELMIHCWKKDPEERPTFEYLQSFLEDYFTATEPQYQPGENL
Fibroblast growth factor receptor 3 (Homo sapiens), sequence (P22607 23-806 limits assumed): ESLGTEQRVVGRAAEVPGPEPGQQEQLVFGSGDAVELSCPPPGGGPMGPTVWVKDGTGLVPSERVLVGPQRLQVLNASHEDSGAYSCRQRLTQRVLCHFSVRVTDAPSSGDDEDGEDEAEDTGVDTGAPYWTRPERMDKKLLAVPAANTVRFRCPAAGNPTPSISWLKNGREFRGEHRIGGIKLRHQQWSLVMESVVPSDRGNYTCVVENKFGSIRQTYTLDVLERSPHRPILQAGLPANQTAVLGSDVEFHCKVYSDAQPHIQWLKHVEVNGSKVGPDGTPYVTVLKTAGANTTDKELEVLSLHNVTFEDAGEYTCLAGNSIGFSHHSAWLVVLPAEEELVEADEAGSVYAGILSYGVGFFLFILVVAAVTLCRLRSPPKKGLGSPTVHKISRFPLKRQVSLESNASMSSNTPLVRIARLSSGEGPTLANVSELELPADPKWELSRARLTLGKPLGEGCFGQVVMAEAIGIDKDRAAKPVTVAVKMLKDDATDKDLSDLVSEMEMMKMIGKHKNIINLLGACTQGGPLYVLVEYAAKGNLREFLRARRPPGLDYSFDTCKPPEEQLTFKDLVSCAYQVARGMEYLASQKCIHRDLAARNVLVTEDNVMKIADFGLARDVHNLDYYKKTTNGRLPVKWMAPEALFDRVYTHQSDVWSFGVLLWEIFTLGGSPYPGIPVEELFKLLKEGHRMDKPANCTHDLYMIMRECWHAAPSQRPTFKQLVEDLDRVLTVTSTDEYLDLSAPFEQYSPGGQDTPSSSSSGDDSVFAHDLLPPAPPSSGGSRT
Dual specificity protein kinase TTK (Homo sapiens), sequence (P33981 whole entry): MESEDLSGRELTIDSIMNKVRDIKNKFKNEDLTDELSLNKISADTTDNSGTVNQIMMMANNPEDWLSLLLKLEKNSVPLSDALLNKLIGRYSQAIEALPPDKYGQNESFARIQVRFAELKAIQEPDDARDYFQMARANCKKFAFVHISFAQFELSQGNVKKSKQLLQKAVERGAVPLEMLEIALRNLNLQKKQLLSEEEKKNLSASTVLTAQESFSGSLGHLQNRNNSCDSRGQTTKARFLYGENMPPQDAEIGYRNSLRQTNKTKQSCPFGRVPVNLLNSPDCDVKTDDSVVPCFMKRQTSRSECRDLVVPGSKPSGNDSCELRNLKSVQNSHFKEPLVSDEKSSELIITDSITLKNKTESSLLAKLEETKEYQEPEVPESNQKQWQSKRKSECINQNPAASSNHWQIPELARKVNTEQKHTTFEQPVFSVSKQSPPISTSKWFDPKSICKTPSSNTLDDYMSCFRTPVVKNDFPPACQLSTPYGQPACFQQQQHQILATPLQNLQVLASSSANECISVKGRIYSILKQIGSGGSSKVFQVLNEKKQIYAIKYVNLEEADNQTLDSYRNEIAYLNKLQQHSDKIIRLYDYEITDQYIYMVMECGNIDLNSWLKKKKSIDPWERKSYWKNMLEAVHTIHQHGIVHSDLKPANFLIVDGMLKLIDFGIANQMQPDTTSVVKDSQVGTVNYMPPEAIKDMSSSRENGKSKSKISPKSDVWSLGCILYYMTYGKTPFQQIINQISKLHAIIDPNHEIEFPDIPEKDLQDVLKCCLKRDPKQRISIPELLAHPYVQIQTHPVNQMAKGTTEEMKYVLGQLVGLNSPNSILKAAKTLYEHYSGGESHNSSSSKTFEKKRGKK
Epidermal growth factor receptor (Homo sapiens), P00533 [UNDEFINED MUTATION], sequence (P00533 whole entry, looked up, stated change not applied): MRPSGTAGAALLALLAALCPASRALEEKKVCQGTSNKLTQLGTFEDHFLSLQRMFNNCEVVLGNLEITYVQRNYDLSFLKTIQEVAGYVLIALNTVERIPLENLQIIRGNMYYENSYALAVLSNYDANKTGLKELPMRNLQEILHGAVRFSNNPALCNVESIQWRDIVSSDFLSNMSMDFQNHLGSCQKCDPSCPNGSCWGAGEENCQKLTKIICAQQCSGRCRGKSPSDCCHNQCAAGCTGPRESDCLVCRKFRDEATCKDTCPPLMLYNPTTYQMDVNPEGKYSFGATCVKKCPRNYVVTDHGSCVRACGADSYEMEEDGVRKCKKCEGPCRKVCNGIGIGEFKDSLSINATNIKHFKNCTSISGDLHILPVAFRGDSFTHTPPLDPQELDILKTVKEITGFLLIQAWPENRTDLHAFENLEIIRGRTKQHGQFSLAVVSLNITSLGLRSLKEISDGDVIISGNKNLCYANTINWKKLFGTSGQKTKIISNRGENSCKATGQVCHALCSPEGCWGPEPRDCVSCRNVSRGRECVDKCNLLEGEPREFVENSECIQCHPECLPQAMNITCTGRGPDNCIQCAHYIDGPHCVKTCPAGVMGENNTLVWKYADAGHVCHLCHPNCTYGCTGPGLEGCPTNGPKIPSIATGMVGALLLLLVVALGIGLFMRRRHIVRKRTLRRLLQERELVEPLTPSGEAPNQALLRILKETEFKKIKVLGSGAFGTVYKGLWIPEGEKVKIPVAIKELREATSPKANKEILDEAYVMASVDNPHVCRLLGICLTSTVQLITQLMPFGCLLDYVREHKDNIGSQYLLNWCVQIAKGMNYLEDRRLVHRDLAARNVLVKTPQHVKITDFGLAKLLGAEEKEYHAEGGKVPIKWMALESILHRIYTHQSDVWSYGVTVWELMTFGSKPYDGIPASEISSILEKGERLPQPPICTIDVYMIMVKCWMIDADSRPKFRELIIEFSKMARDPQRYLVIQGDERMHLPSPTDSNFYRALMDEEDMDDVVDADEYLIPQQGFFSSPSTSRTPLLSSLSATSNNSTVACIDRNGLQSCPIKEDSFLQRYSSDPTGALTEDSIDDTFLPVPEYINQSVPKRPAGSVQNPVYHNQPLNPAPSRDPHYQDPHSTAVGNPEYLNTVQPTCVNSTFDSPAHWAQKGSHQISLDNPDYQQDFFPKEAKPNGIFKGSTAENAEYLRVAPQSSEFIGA
Maternal embryonic leucine zipper kinase (Homo sapiens), sequence (Q14680 whole entry, looked up): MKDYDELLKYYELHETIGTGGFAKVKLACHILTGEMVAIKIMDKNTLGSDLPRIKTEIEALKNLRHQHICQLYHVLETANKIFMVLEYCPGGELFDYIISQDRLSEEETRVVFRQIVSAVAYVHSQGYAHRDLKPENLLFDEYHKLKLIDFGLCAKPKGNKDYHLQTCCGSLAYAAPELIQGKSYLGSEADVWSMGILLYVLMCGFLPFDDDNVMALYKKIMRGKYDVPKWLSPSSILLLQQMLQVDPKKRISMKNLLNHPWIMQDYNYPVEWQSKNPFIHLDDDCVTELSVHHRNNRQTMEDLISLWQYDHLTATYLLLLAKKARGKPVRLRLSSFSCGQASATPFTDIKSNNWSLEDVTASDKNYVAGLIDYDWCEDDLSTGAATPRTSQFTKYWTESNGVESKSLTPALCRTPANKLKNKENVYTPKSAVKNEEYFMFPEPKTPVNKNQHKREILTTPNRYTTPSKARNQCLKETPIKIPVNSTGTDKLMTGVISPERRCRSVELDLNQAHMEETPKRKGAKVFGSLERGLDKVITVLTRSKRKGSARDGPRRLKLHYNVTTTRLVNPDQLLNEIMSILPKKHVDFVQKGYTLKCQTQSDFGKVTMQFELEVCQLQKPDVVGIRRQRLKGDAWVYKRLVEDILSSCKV
High affinity nerve growth factor receptor (Homo sapiens), sequence (P04629 33-796 limits assumed): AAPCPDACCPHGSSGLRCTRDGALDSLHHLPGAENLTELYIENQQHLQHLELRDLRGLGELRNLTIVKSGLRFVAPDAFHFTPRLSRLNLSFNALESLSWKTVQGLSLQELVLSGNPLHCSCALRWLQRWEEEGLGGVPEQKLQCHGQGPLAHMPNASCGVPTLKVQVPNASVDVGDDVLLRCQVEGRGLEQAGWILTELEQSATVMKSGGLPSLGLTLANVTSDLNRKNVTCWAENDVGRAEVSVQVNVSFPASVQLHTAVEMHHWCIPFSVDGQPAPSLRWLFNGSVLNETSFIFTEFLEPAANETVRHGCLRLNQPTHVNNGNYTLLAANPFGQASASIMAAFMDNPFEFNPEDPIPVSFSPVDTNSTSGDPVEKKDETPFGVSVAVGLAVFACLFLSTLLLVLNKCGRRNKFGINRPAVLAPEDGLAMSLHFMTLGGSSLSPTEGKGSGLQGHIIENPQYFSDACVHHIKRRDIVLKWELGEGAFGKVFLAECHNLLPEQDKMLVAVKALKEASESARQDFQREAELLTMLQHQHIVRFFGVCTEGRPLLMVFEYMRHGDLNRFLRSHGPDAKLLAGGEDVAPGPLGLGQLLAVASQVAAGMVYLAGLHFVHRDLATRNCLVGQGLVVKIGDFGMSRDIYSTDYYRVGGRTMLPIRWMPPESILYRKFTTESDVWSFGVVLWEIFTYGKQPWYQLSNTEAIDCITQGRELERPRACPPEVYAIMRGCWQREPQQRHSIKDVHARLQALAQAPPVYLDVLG

`O=C1c2ccc(Nc3ccc(F)cc3F)cc2CCc2ccc(OC[C@H](O)CO)cc21` [Skepinone-L] was tested, and the Activity [1] was 86%, the Activity [2] was 100% and the Activity [3] was 88%. The Activity [4] was 43%, the Activity [5] was 99% and the Activity [6] was 96%. For the same compound, the Activity [7] was 102%, the Activity [8] was 124% and the Activity [9] was 121%. For the same compound, the Activity [10] was 98%, the Activity [11] was 100% and the Activity [12] was 81%. It also gave an Activity [13] of 92%, an Activity [14] of 0% and an Activity [15] of 77%. For the same compound, the Activity [16] was 83% and the inhibition in vivo at 3 mg/kg [17] was 77%.

Source: ChEMBL document CHEMBL5696441 (Nat Chem Biol, 2011)
